Measured values from patent US20020193425A1, “Cancer chemopreventative compounds and compositions and methods of treating cancers” (priority 2001, published 2002).
≈ marks a conversion by molar mass, not a printed value. Like-named read-outs stand apart in the source and are kept apart here.

How the values were obtained:
[1] = test system: HL-60 (human promyelocytic) cells; assay: HL-60 cell differentiation of quassinoids, NBT reduction; assay type: cell-based; conditions: Homo sapiens, HL-60, 96 h, read-out: induction of differentiation (EC50, μM)
Protocol: (§1) Induction of differentiation was determined by the ability of treated cells to produce superoxide anions (nitroblue tetrazolium (NBT)-reduction), a functional marker of mature macrophages or granulocytes. Proliferation capacity is equivalent to cell growth and was measured by incorporation of [3H]thymidine into DNA over a period of 18 h, and cytotoxic activity was evaluated by the loss of membrane integrity as shown by trypan blue exclusion. […] Although members of the brusatol and glaucarubolone series were active, when comparing members of both series that varied only in the positioning of the epoxymethano bridge, great differences were noted, as shown with yadianzolide C (5) and glaucarubolone (24), and analogues 4 (brusatol series) and 32 (glaucarubolone series).
(§2) HL-60 (human promyelocytic) cells were tested using a 4-day incubation protocol. In brief, cells in log phase (approximately 10^6 cells/mL) were diluted to […] and preincubated overnight (18 h) in 24-well plates to allow cell-growth recovery. Then, samples dissolved in DMSO were added, keeping the final DMSO concentration at 0.1% (v/v). Control cultures were treated with the same concentration of DMSO. After 4 days of incubation, the cells were analyzed to determine the percentage of cells undergoing maturation as determined by NBT reduction. Concomitantly, the effect on viability and proliferation of HL-60 cells was determined. In each experiment, 1α, 25-dihydroxyvitamin D3 (EC50=0.01 μM) and brusatol (EC50=0.07 μM) were used as reference controls. EC50 and IC50 values were calculated using 5-7 test concentrations (in duplicate), and consistent results were obtained, indicating the data reported for the related quassinoids are reliable.
(1) Nitroblue Tetrazolium (NBT) Reduction. Evaluation of NBT reduction was used to assess the ability of sample-treated HL-60 cells to produce superoxide when challenged with 12-O-tetradecanoylphorbol 13-acetate (TPA). A 1:1 v/v) mixture of a cell suspension (10^6 cells) and TPA/NBT solution (2 mg/mL NBT and 1 μg/mL TPA in phosphate buffered solution) was incubated for 1 h at 37° C. Positive cells reduce NBT yielding intracellular black-blue formazan deposits, which were quantified by microscopic examination of >200 cells. Results were expressed as a percentage of positive cells.

[2] = test system: BV173; assay: Antiproliferative activity, [3H]thymidine incorporation; assay type: cell-based; conditions: four days
Protocol: (§3) Cellular viability was monitored by Trypan blue exclusion.
(§4) ^bproliferation was assayed by [^3H]thymidine incorporation with quadruplicate samples, as described under “Materials and methods”.

[3] = test system: Reh; assay: as above; assay type: cell-based; conditions: Homo sapiens, 96 h, four days, read-out: Antiproliferative Activity (IC50, ng/ml)
Protocol: as §3, §4

[4] = test system: Kasumi-1; assay: as above; assay type: cell-based; conditions: Homo sapiens, 96 h, four days, read-out: Antiproliferative Activity (IC50, ng/ml)
Protocol: as §3, §4

[5] = test system: SUPB13; assay: as above; assay type: cell-based; conditions: 96 h, four days, read-out: Antiproliferative Activity (IC50, ng/ml)
Protocol: as §3, §4

[6] = test system: Peripheral Human Lymphocytes; assay: as above; assay type: cell-based; conditions: Lymphocyte, 72 h, three days, concanavalin A (0.4 μg/ml), read-out: Antiproliferative Activity (IC50, ng/ml)
Protocol: as §3, §4

[7] = test system: c-myc mRNA, HL-60; assay: c-myc mRNA levels, real time RT-PCR; assay type: cell-based, human
Protocol: RNA was extracted from 10^6 cells using TRIZOL® Reagent (Life Technologies). Following isopropanol precipitation, the pellet was washed in 75% aqueous ethanol and the RNA was dissolved in […] of diethyl pyrocarbonate (DEPC)-treated distilled water. Subsequently, the samples were stored at −80° C. RNA quantitation was performed by UV measurement at 260 nm. The cDNA synthesis was performed in a total volume of […], containing 1×TaqManÒ RT buffer, 5.5 mM MgCl2, 2 mM dNTPs mixture, 2.5 mM random hexamers, 4 U RNase inhibitor, 12.5 U MultiScriber RT (Perkin Elmer/Applied Biosystems) and […] of RNA. The reaction was performed for 10 min at 25° C., followed by 48° C. for 30 min and a 5 min incubation step at 95° C. After the reaction, […] of DEPC-treated distilled water was added to each sample and […] was used for each PCR.
The PCR and subsequent analyses were performed in the GeneAmp 5700 Sequence Detection System (Applied Biosystems). Real-time quantitation was performed using the TaqMan technology of Applied Biosystems (Foster City, Calif., USA). c-Myc primers and probe sequences (5′ to 3′) were as follows: […], […] and […] (Applied Biosystems).
PCR reactions were performed in triplicate. The PCR reaction mixture contained 300 nM of both primers, 150 nM TaqMan probe, and 1×TaqMan Universal Master Mix (Applied Biosystems). The reactions first were incubated at 50° C. for 2 min, followed by 10 min at 95° C. The PCR itself consisted of 40 cycles with 15 s at 95° C. and 1 min at 60° C. each. The fluorescence signal was measured during the last 30 s of the annealing/extension phase. After the PCR, a fluorescence threshold value was set and threshold cycle (Ct) values were determined, i.e., the fractional cycle at which the fluorescence signal reached this threshold. These values were used for further calculations.
β-Actin (TaqMan PDAR control, Applied Biosystems) was used as an endogenous reference to correct for any differences in the amount of total RNA used for a reaction and to compensate for different levels of inhibition during reverse transcription of RNA into cDNA. c-Myc and β-actin expression were related to a standard curve derived from a serial dilution of K562 cDNA with dH2O. Also, c-Myc and β-actin quantities were expressed in terms of ng of K562 RNA yielding the same level of expression. Subsequently, normalization was achieved by dividing the expression level of c-Myc by the β-actin expression level. Finally, results were expressed as a percentage, where the level of c-Myc observed in the DMSO-treated samples was considered as 100%.
Cells were treated with brusatol (25 ng/ml) or bruceantin (10 ng/ml) for 4 or 24 h and then analyzed for c-myc and β-actin mRNA using real time RT-PCR. Results are shown as percentage of c-myc mRNA expression of control (0.1%, v/v, DMSO) values. Results are the mean of triplicate samples (±standard deviation). c-Myc mRNA values were normalized relative to β-actin.

[8] = HL-60 cytotoxicity of quassinoids, trypan blue exclusion; assay type: cell-based, human; conditions: human
Protocol: as §1, §2
(2) Cytotoxicity. Since loss of membrane integrity is an early feature of necrotic cells and a late feature of apoptotic cells, trypan blue, a […] blue dye, was used to stain cells with compromised plasma membranes, while leaving intact cells unstained. Cells […] of trypan blue (0.2% w/v in PBS), incubated for at least 5 min at room temperature, and counted using a hematocytometer. Viability percentages were calculated with duplicate samples.

Compound | EC50 [1] [µM] | Antiproliferative Activity (IC50, ng/ml) [2] | IC50 [3] [ng/mL] | IC50 [4] [ng/mL] | IC50 [5] [ng/mL] | IC50 [6] [ng/mL] | decrease in c-Myc mRNA levels ([7]; 4 h treatment) | c-myc mRNA expression, percentage of control ([7]; Brusatol (25 ng/ml), 4 h) [%] | c-myc mRNA expression, percentage of control ([7]; Brusatol (25 ng/ml), 24 h) [%] | IC50 at 4 days ([8]; HL-60 cells, HL-60, 4-day incubation, trypan blue exclusion, read-out: cytotoxicity (IC50)) [nM] | c-myc mRNA expression, percentage of control ([7]; Bruceantin (10 ng/ml), 4 h) [%] | c-myc mRNA expression, percentage of control ([7]; Bruceantin (10 ng/ml), 24 h) [%] | IC50 at 4 days [8] [nM]
COC(=O)[C@@]12OC[C@]34[C@H]([C@@H](O)[C@@H]1O)[C@@]1(C)CC(=O)C(O)=C(C)[C@@H]1C[C@H]3OC(=O)[C@H](OC(=O)C=C(C)C)[C@@H]24 [compound 1, brusatol] | 0.07 | No effect | 37 ± 5.6 (≈ 0.0711 µM) | 7 ± 0.6 (≈ 0.0134 µM) | 37 ± 1.9 (≈ 0.0711 µM) | 7.5 ± 0.3 (≈ 0.0144 µM) | about 50% | 54 ± 2 | 11 ± 2 | 170 ± 1 |  |  | 
COC(=O)[C@@]12OC[C@]34[C@H]([C@@H](O)[C@@H]1O)[C@@]1(C)CC(=O)C(O)=C(C)[C@@H]1C[C@H]3OC(=O)[C@H](OC(=O)/C=C(\C)C(C)C)[C@@H]24 [compound 2, bruceantin] | 0.02 ± 0.002 | No effect | 12.5 ± 0.8 (≈ 0.0228 µM) | 3.2 ± 0.1 (≈ 0.00583 µM) | 10 ± 0.5 (≈ 0.0182 µM) | 3 ± 0.3 (≈ 0.00547 µM) |  |  |  |  | 76 ± 9 | 16 ± 0 | 40 ± 3
